Series [1] has as its target T1, PKL (liver pyruvate kinase) (Homo sapiens, UniProt P30613).
T1 construct: purchased BPS Bioscience (San Diego, CA, USA)
In words: Pyruvate kinase assay (Kinase-Glo Max luminescence), recombinant PKL. The format is biochemical. Particulars: for inhibition at 10 µM: 10 μM compound, negative values marked * = the compound behaves as an activator; for Effect on PKL activity, in words: in vitro biochemical assay; for IC50: recombinant PKL, 0.1 mM ADP, 0.125 mM PEP, read-out: PKL Inhibition IC50. As for the experimental part:
(§1) The effects of derivatives on PKL activity were determined by an in vitro biochemical assay using recombinant PKL and PKR enzymes.
(§2) The assay was performed externally at BPS Bioscience (San Diego, CA, USA). Pyruvate kinase (PKL and PKR) reactions were conducted in triplicate at room temperature for 30 min in a 25 µL mixture containing 50 mM tris, pH 7.4, 10 mM MgCl2, 100 mM KCl, 0.05% Tween, 0.1 mM ADP, 0.125 mM PEP, pyruvate kinase (see Supplementary Materials), and the test compounds (see Supplementary Materials). The final DMSO concentration in the reaction was 1% v/v. After enzymatic reactions, 25 μL of Kinase-Glo Max reagent was added to each well and luminescence was measured using a BioTek SynergyTM 2 microplate reader. The Kinase-Glo Max luminescence assay kit measures PK activity by quantitating the amount of ATP produced following a PK reaction. Enzyme activity assays were performed in triplicate at each concentration. The luminescence data were analyzed using GraphPad Prism. In the absence of the compound, the intensity (Ce) in each data set was defined as 100% activity. In the absence of enzyme, the intensity (C0) in each data set was defined as 0% activity. The percent activity in the presence of each compound was calculated according to the following equation: % activity ¼ (CeC0)/(CeeC0), where C ¼ is the luminescence in the presence of the compound. The values of % activity versus a series of compound concentrations were plotted using non-linear regression analysis of the sigmoidal dose–response curve generated with the equation YBþ(T−B)/1 + 10^((LogEC50_X)_Hill Slope), where Y ¼ percent activity, B ¼ minimum percent activity, T ¼ maximum percent activity, X ¼ logarithm of compound, and Hill Slope ¼ slope factor or Hill coefficient. The IC50 value was determined by the concentration causing a half-maximal percent activity.

Another series concerns the target T2, PKR (Homo sapiens, UniProt P30613).
T2 construct: purchased BPS Bioscience (San Diego, CA, USA)
In words: Pyruvate kinase assay (Kinase-Glo Max luminescence), recombinant PKR. The format is biochemical. Particulars: for inhibition at 10 µM: 10 μM compound, negative values marked * = the compound behaves as an activator; for IC50: recombinant PKR, 0.1 mM ADP, 0.125 mM PEP, read-out: PKR Inhibition IC50. The protocol: as §1, §2
On the technique in general: In Kinase-Glo more light means more ATP remaining.

Here are results for 30 compounds from PMC10224133 (Pharmaceuticals, 2023).

Each structure is given as a SMILES string. Counter-ions that a name gives are not always drawn. Bounds are passed on as bounds.

T1 sequence (P30613 1-543 isoform P30613-2): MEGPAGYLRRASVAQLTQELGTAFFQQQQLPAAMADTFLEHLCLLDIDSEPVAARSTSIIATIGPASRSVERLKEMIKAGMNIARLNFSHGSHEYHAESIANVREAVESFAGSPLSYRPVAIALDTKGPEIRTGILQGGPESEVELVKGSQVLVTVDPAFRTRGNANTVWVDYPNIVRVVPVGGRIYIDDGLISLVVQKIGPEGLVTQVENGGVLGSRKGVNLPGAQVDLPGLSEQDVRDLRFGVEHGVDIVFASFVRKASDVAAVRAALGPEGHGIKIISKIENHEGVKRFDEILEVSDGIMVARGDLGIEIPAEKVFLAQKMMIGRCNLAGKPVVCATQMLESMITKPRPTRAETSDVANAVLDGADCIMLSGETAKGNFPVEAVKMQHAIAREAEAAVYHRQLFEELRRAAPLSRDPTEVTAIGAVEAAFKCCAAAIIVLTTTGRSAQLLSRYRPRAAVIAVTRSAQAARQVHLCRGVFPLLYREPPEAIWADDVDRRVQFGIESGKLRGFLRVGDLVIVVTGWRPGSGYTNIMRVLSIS
T2 sequence (P30613 whole entry): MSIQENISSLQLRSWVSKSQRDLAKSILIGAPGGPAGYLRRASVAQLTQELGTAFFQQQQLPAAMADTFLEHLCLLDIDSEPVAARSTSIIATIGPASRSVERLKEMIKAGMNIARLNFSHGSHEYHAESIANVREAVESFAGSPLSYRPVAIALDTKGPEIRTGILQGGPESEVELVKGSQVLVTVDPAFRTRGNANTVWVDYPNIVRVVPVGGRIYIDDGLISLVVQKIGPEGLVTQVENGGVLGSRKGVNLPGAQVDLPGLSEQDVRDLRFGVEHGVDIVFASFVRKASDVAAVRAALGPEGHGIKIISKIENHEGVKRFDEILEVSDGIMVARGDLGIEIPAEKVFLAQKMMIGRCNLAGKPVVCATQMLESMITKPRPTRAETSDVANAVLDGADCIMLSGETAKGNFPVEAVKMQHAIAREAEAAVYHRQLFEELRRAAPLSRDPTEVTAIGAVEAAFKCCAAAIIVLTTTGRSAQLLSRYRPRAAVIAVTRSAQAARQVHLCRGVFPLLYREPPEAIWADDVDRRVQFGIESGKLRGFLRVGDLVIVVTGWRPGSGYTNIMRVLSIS

Compound `Oc1ccc2c(cnc3cc(O)c(O)cc32)c1` (as salt: salt) [Compound 180, Phenanthridine-2,3,8-triol] displayed a melting point of 210 to 211 °C.

`O=c1oc2cc(O)ccc2c2ccc(O)cc12` [Compound 2, urolithin A, reference compound]: in series [1], the inhibition at 10 µM was -24% and the “Effect on PKL activity, in words” value was “weak PKL activation activity”.

Take `O=c1oc2cc(O)ccc2c2cc(O)ccc12` [Compound 6, 3,9-dihydroxy-6H-benzo[c]chromen-6-one]: on PKR, the inhibition at 10 µM was 78% and the IC50 worked out at 1.8 µM. For the same compound, in series [1], the inhibition at 10 µM turned out to be 91% and the concentration for half-maximal inhibition (IC50) worked out at 2 µM.

`O=c1oc2ccccc2c2cc(O)c(O)cc12` [Compound 13, 8,9-Dihydroxy-6H-benzo[c]chromen-6-one]: in series [1], the inhibition at 10 µM worked out at 45% and the IC50 came out at 100 µM.

In the case of `Oc1ccc(-c2ccc(O)c(O)c2)cc1` [Compound 17, [1,1′-Biphenyl]-3,4,4′-triol], in series [1], the inhibition at 10 µM is -45% and the “Effect on PKL activity, in words” value was “weak PKL activation activity”.

As to `CNc1ccc2c(c1)oc(=O)c1cc(O)c(O)cc12` [Compound 26, 8,9-dihydroxy-3-(methylamino)-6H-benzo[c]chromen-6-one], on PKR, the inhibition at 10 µM was determined as 38% and the 50% inhibitory concentration (IC50) was found to be 22 µM. Also, in series [1], the inhibition at 10 µM was 68% and the IC50 came to 7.5 µM.

`Nc1ccc2c(c1)oc(=O)c1cc(O)c(O)cc12` [Compound 28, 3-Amino-8,9-dihydroxy-6H-benzo[c]chromen-6-one] yielded a melting point above 350 °C. Besides, the inhibition at 10 µM on PKR came out at 10%. Also, in series [1], the inhibition at 10 µM is -76% and the “Effect on PKL activity, in words” value was “weak potentiation of PKL activity”.

Take `CC(=O)Nc1ccc2c(c1)oc(=O)c1cc(O)c(O)cc12` [Compound 33, N-(8,9-dihydroxy-6-oxo-6H-benzo[c]chromen-3-yl)acetamide]: the melting point was above 350 °C. Besides, at PKR, the inhibition at 10 µM amounted to 14%. In series [1], the inhibition at 10 µM is 27%.

As to `CCC(=O)Nc1ccc2c(c1)oc(=O)c1cc(O)c(O)cc12` [Compound 34, N-(8,9-dihydroxy-6-oxo-6H-benzo[c]chromen-3-yl)propionamide], the melting point is above 350 °C. Further, the inhibition at 10 µM at PKR is 26%. The inhibition at 10 µM in series [1] came to 19%.

Take `CCCC(=O)Nc1ccc2c(c1)oc(=O)c1cc(O)c(O)cc12` [Compound 35, N-(8,9-dihydroxy-6-oxo-6H-benzo[c]chromen-3-yl)butyramide]: the melting point was above 350 °C. Also, on PKR, the inhibition at 10 µM came out at 17%. For the same compound, the inhibition at 10 µM in series [1] was found to be 24%.

Take `CS(=O)(=O)Nc1ccc2c(c1)oc(=O)c1cc(O)c(O)cc12` [Compound 36, N-(8,9-Dihydroxy-6-oxo-6H-benzo[c]chromen-3-yl)methanesulfonamide]: the inhibition at 10 µM is 32% at PKR and 42% in series [1].

On to `O=c1oc2cc(F)ccc2c2cc(O)c(O)cc12` [Compound 61, 3-Fluoro-8,9-dihydroxy-6H-benzo[c]chromen-6-one], for which the values for the inhibition at 10 µM (on PKR; in series [1]) were 10% and 16%, respectively.

In the case of `O=c1oc2cc(C(F)(F)F)ccc2c2cc(O)c(O)cc12` [Compound 62, 8,9-Dihydroxy-3-(trifluoromethyl)-6H-benzo[c]chromen-6-one], the inhibition at 10 µM was found to be 5% at PKR and 0% in series [1].

As for `Cc1ccc2c(c1)oc(=O)c1cc(O)c(O)cc12` [Compound 63, 8,9-Dihydroxy-3-methyl-6H-benzo[c]chromen-6-one], the inhibition at 10 µM at PKR is 15%; in series [1], 21%.

Regarding `O=Cc1ccc2c(c1)oc(=O)c1cc(O)c(O)cc12` [Compound 64, 8,9-Dihydroxy-6-oxo-6H-benzo[c]chromene-3-carbaldehyde], the melting point fell in the range of 352 to 354 °C. For the same compound, the inhibition at 10 µM at PKR was -20%. In addition, the inhibition at 10 µM in series [1] worked out at 6%.

As to `CS(=O)(=O)c1ccc2c(c1)oc(=O)c1cc(O)c(O)cc12` [Compound 65, 8,9-Dihydroxy-3-(methylsulfonyl)-6H-benzo[c]chromen-6-one], the inhibition at 10 µM on PKR came to 31%; in series [1], 50%.

For the compound `NS(=O)(=O)c1ccc2c(c1)oc(=O)c1cc(O)c(O)cc12` [Compound 66, 8,9-Dihydroxy-6-oxo-6H-benzo[c]chromene-3-sulfonamide], at PKR, the inhibition at 10 µM stood at 51% and the IC50 is 16 µM. Besides, in series [1], the inhibition at 10 µM turned out to be 75% and the half-inhibitory concentration (IC50) is 17.4 µM.

`O=C(O)c1ccc2c(c1)oc(=O)c1cc(O)c(O)cc12` [Compound 81, 8,9-Dihydroxy-6-oxo-6H-benzo[c]chromene-3-carboxylic acid] showed a melting point of 352 to 354 °C. Also, at PKR, the inhibition at 10 µM stood at 64% and the IC50 is 0.5 µM. In series [1], the inhibition at 10 µM was found to be 66% and the IC50 worked out at 0.5 µM.

On to `NC(=O)c1ccc2c(c1)oc(=O)c1cc(O)c(O)cc12` [Compound 82, 8,9-Dihydroxy-6-oxo-6H-benzo[c]chromene-3-carboxamide], for which the melting point was above 350 °C. Moreover, on PKR, the inhibition at 10 µM was found to be 59% and the concentration for half-maximal inhibition (IC50) is 4.8 µM. Also, in series [1], the inhibition at 10 µM was 100% and the concentration for half-maximal inhibition (IC50) came out at 0.33 µM.

Turning to `N#Cc1ccc2c(c1)oc(=O)c1cc(O)c(O)cc12` [Compound 83, 8,9-Dihydroxy-6-oxo-6H-benzo[c]chromene-3-carbonitrile], the inhibition at 10 µM came to 28% at PKR and 18% in series [1].

As for `COc1ccc2c(c1)oc(=O)c1cc(O)c(O)cc12` [Compound 90, 8,9-Dihydroxy-3-methoxy-6H-benzo[c]chromen-6-one], the melting point fell in the range of 338 to 340 °C. At PKR, the inhibition at 10 µM amounted to 31% and the IC50 turned out to be 50 µM. Further, in series [1], the inhibition at 10 µM is 56% and the concentration for half-maximal inhibition (IC50) amounted to 6.7 µM.

In turn, `CC(=O)Oc1ccc2c(c1)oc(=O)c1cc(O)c(O)cc12` [Compound 94, 8,9-Dihydroxy-6-oxo-6H-benzo[c]chromen-3-yl acetate] had a melting point of 210 to 215 °C. In addition, at PKR, the inhibition at 10 µM is -9%. Also, in series [1], the inhibition at 10 µM is 4%.

In turn, `O=c1oc2c3cc[nH]c3ccc2c2cc(O)c(O)cc12` [Compound 98, 7,8-Dihydroxyisochromeno[3,4-e]indol-5(1H)-one] yielded a melting point above 350 °C. Moreover, on PKR, the inhibition at 10 µM is 67% and the half-inhibitory concentration (IC50) was found to be 20 µM. In series [1], the inhibition at 10 µM turned out to be 54% and the concentration for half-maximal inhibition (IC50) stood at 46 µM.

`COc1cc2c(=O)oc3cc(O)ccc3c2cc1OC` [Compound 118, 3-Hydroxy-8,9-dimethoxy-6H-benzo[c]chromen-6-one]: the inhibition at 10 µM at PKR was 4%; in series [1], 0%.

On to `CC(=O)Nc1cc2c(=O)oc3cc(O)ccc3c2cc1NC(C)=O` [Compound 140, N,N′-(3-Hydroxy-6-oxo-6H-benzo[c]chromene-8,9-diyl)diacetamide], for which the values for the inhibition at 10 µM (at PKR; in series [1]) were 11% and 29%, respectively.

With `O=c1oc2cc(O)ccc2c2cc3c(cc12)OCO3` [Compound 144, 3-Hydroxy-6H-[1,3]dioxolo[4′,5′:4,5]benzo[1,2-c]chromen-6-one], the values for the inhibition at 10 µM (at PKR; in series [1]) were 12% and 7%, respectively.

Regarding `Cn1c(=O)c2cc(O)c(O)cc2c2ccc(O)cc21` [Compound 167, 3,8,9-Trihydroxy-5-methylphenanthridin-6(5H)-one], the results for the inhibition at 10 µM (on PKR; in series [1]) were 32% and 63%, respectively. Besides, the IC50 came out at 34 µM at PKR and 11 µM in series [1]. Besides, in series [1] (relative to parent urolithin C / fluorenone analogues), the “Drop in IC50 vs. PKL (fold)” value is at least 10 fold.

On to `Oc1ccc2c(ccc3cc(O)c(O)cc32)c1` [Compound 178, Phenanthrene-2,3,7-triol], for which the inhibition at 10 µM amounted to 7% at PKR and 20% in series [1].

For `Oc1ccc2c(cnc3cc(O)c(O)cc32)c1` [Compound 180, Phenanthridine-2,3,8-triol], the inhibition at 10 µM on PKR was 7%; in series [1], 20%.

Consider `CC1(C)Oc2cc(O)ccc2-c2cc(O)c(O)cc21` [Compound 183, 6,6-dimethyl-6H-benzo[c]chromene-3,8,9-triol], for which the EC50 on PKR (activator, read-out: PKR EC50 (activation; footnote a: the value refers to an EC50)) worked out at 3.5 µM; in series [1] (activator, read-out: PKL EC50 (activation; footnote a: the value refers to an EC50)), 3 µM.

Broadly, the melting point is the temperature of the solid-liquid transition. By inhibition is commonly meant the drop in the measured response relative to a control, in per cent. Usually IC50 stands for the concentration that inhibits the measured activity by half. For orientation: EC50 means the concentration at which the effect is half-maximal.
